Assay results reported in the supplement of paper PMC10307832.

Experiments:
Test in all cases: relative viability (nuclei count vs DMSO), 5 days (fraction); higher = more cells survive
Sorafenib + Linsitinib = compound: CNC(=O)c1cc(Oc2ccc(NC(=O)Nc3ccc(Cl)c(C(F)(F)F)c3)cc2)ccn1 [Sorafenib] + C[C@]1(O)C[C@@H](c2nc(-c3ccc4ccc(-c5ccccc5)nc4c3)c3c(N)nccn32)C1 [Linsitinib] (partner 1 µM)
How it was run: (§1)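 Relative viability divides the nuclei count in treated wells by that in vehicle wells. Lung cancer cell lines were seeded in 1536-well plates, dosed by pin tool the next day, and fixed and stained after 5 days in one step with final 0.05% Triton X-100, 1% formaldehyde and 1 ug/ml Hoechst. Dosing was a single drug or a fixed anchor-drug dose plus five library-drug doses (not always all listed) in √10 steps, and values are medians of duplicate plates imaged at 4×.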

Sorafenib + Alpelisib = compound: CNC(=O)c1cc(Oc2ccc(NC(=O)Nc3ccc(Cl)c(C(F)(F)F)c3)cc2)ccn1 [Sorafenib] + Cc1nc(NC(=O)N2CCC[C@H]2C(N)=O)sc1-c1ccnc(C(C)(C)C(F)(F)F)c1 [Alpelisib] (partner 2 µM)
How it was run: as §1

Sorafenib + Navitoclax = compound: CNC(=O)c1cc(Oc2ccc(NC(=O)Nc3ccc(Cl)c(C(F)(F)F)c3)cc2)ccn1 [Sorafenib] + CC1(C)CCC(c2ccc(Cl)cc2)=C(CN2CCN(c3ccc(C(=O)NS(=O)(=O)c4ccc(N[C@H](CCN5CCOCC5)CSc5ccccc5)c(S(=O)(=O)C(F)(F)F)c4)cc3)CC2)C1 [Navitoclax] (partner 0.5 µM)
How it was run: as §1

Sorafenib + Lapatinib = compound: CNC(=O)c1cc(Oc2ccc(NC(=O)Nc3ccc(Cl)c(C(F)(F)F)c3)cc2)ccn1 [Sorafenib] + CS(=O)(=O)CCNCc1ccc(-c2ccc3ncnc(Nc4ccc(OCc5cccc(F)c5)c(Cl)c4)c3c2)o1 [Lapatinib] (partner 2 µM)
How it was run: as §1

Sorafenib + Olaparib = compound: CNC(=O)c1cc(Oc2ccc(NC(=O)Nc3ccc(Cl)c(C(F)(F)F)c3)cc2)ccn1 [Sorafenib] + O=C(c1cc(Cc2n[nH]c(=O)c3ccccc23)ccc1F)N1CCN(C(=O)C2CC2)CC1 [Olaparib] (partner 8 µM)
How it was run: as §1

Sorafenib + Foretinib = compound: CNC(=O)c1cc(Oc2ccc(NC(=O)Nc3ccc(Cl)c(C(F)(F)F)c3)cc2)ccn1 [Sorafenib] + COc1cc2c(Oc3ccc(NC(=O)C4(C(=O)Nc5ccc(F)cc5)CC4)cc3F)ccnc2cc1OCCCN1CCOCC1 [Foretinib] (partner 0.25 µM)
How it was run: as §1

Sorafenib + Bortezomib = compound: CNC(=O)c1cc(Oc2ccc(NC(=O)Nc3ccc(Cl)c(C(F)(F)F)c3)cc2)ccn1 [Sorafenib] + CC(C)C[C@H](NC(=O)[C@H](Cc1ccccc1)NC(=O)c1cnccn1)B(O)O [Bortezomib] (partner 0.002 µM)
How it was run: as §1

Sorafenib + Crizotinib = compound: CNC(=O)c1cc(Oc2ccc(NC(=O)Nc3ccc(Cl)c(C(F)(F)F)c3)cc2)ccn1 [Sorafenib] + C[C@@H](Oc1cc(-c2cnn(C3CCNCC3)c2)cnc1N)c1c(Cl)ccc(F)c1Cl [Crizotinib] (partner 1 µM)
How it was run: as §1

Sorafenib + Pictilisib = compound: CNC(=O)c1cc(Oc2ccc(NC(=O)Nc3ccc(Cl)c(C(F)(F)F)c3)cc2)ccn1 [Sorafenib] + CS(=O)(=O)N1CCN(Cc2cc3nc(-c4cccc5[nH]ncc45)nc(N4CCOCC4)c3s2)CC1 [Pictilisib] (partner 1 µM)
How it was run: as §1

Sorafenib = compound: CNC(=O)c1cc(Oc2ccc(NC(=O)Nc3ccc(Cl)c(C(F)(F)F)c3)cc2)ccn1 [Sorafenib]
How it was run: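 Lung cancer cell lines in 1536-well plates were kept overnight at 37 °C, then pinned with five library-drug doses (not always all listed) spaced by √10 on vehicle-anchored plates. After 5 days without medium change, cells were fixed, permeabilised and Hoechst-stained in one step, imaged at 4×, and nuclei were counted with MetaXpress. Viability is treated-well nuclei divided by vehicle-well nuclei, taken as the median over plates. Plates passed only with control CV below 25% and at least one doubling.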

Sorafenib + Vorinostat = compound: CNC(=O)c1cc(Oc2ccc(NC(=O)Nc3ccc(Cl)c(C(F)(F)F)c3)cc2)ccn1 [Sorafenib] + O=C(CCCCCCC(=O)Nc1ccccc1)NO [Vorinostat] (partner 1 µM)
How it was run: as §1

Question: Which relative viability (Sorafenib + Linsitinib; first compound 0.253 µM) does the source give for EBC-1 here?
Answer: 0.732

Question: What about the relative viability (Sorafenib + Linsitinib; first compound 2.53 µM) of the same cell line?
Answer: 0.931

Question: What about the relative viability (Sorafenib + Linsitinib; first compound 8 µM) of the same cell line?
Answer: 0.625

Question: And the relative viability (Sorafenib + Alpelisib; first compound 0.08 µM)?
Answer: 0.875

Question: And the relative viability (Sorafenib + Alpelisib; first compound 0.253 µM)?
Answer: 0.769

Question: What about the relative viability (Sorafenib + Alpelisib; first compound 2.53 µM) of the same cell line?
Answer: 0.89

Question: What about the relative viability (Sorafenib + Alpelisib; first compound 8 µM) of the same cell line?
Answer: 0.623

Question: And the relative viability (Sorafenib + Navitoclax; first compound 0.08 µM)?
Answer: 0.568

Question: What about the relative viability (Sorafenib + Navitoclax; first compound 2.53 µM) of the same cell line?
Answer: 0.42

Question: What about the relative viability (Sorafenib + Navitoclax; first compound 8 µM) of the same cell line?
Answer: 0.451

Question: And the relative viability (Sorafenib + Lapatinib; first compound 0.08 µM)?
Answer: 0.203

Question: And the relative viability (Sorafenib + Lapatinib; first compound 0.253 µM)?
Answer: 0.219

Question: What about the relative viability (Sorafenib + Lapatinib; first compound 2.53 µM) of the same cell line?
Answer: 0.226

Question: What about the relative viability (Sorafenib + Lapatinib; first compound 8 µM) of the same cell line?
Answer: 0.208

Question: What about the relative viability (Sorafenib + Olaparib; first compound 0.08 µM) of the same cell line?
Answer: 0.717

Question: And the relative viability (Sorafenib + Olaparib; first compound 0.253 µM)?
Answer: 0.543

Question: And the relative viability (Sorafenib + Olaparib; first compound 2.53 µM)?
Answer: 0.594

Question: And the relative viability (Sorafenib + Olaparib; first compound 8 µM)?
Answer: 0.557

Question: And the relative viability (Sorafenib + Foretinib; first compound 0.08 µM)?
Answer: 0.092

Question: What about the relative viability (Sorafenib + Foretinib; first compound 0.253 µM) of the same cell line?
Answer: 0.1

Question: What about the relative viability (Sorafenib + Foretinib; first compound 2.53 µM) of the same cell line?
Answer: 0.11

Question: And the relative viability (Sorafenib + Foretinib; first compound 8 µM)?
Answer: 0.114

Question: What about the relative viability (Sorafenib + Bortezomib; first compound 0.08 µM) of the same cell line?
Answer: 0.575

Question: And the relative viability (Sorafenib + Bortezomib; first compound 0.253 µM)?
Answer: 0.481

Question: And the relative viability (Sorafenib + Bortezomib; first compound 2.53 µM)?
Answer: 0.521

Question: What about the relative viability (Sorafenib + Bortezomib; first compound 8 µM) of the same cell line?
Answer: 0.405

Question: What about the relative viability (Sorafenib + Crizotinib; first compound 0.08 µM) of the same cell line?
Answer: 0.189

Question: What about the relative viability (Sorafenib + Crizotinib; first compound 0.253 µM) of the same cell line?
Answer: 0.176

Question: What about the relative viability (Sorafenib + Crizotinib; first compound 2.53 µM) of the same cell line?
Answer: 0.202

Question: What about the relative viability (Sorafenib + Crizotinib; first compound 8 µM) of the same cell line?
Answer: 0.203

Question: And the relative viability (Sorafenib + Pictilisib; first compound 0.08 µM)?
Answer: 0.371

Question: What about the relative viability (Sorafenib + Pictilisib; first compound 0.253 µM) of the same cell line?
Answer: 0.419

Question: What about the relative viability (Sorafenib + Pictilisib; first compound 2.53 µM) of the same cell line?
Answer: 0.355

Question: What about the relative viability (Sorafenib + Pictilisib; first compound 8 µM) of the same cell line?
Answer: 0.287

Question: And the relative viability (Sorafenib; 0.08 µM)?
Answer: 1.05

Question: And the relative viability (Sorafenib; 0.253 µM)?
Answer: 0.904

Question: And the relative viability (Sorafenib; 2.53 µM)?
Answer: 0.929

Question: And the relative viability (Sorafenib; 8 µM)?
Answer: 0.812

Question: What does the source list for IA-LM?
Answer: relative viability (Sorafenib + Vorinostat; first compound 0.253 µM): 0.647; relative viability (Sorafenib + Vorinostat; first compound 2.53 µM): 0.436; relative viability (Sorafenib + Vorinostat; first compound 8 µM): 0.508; relative viability (Sorafenib + Linsitinib; first compound 0.08 µM): 0.456; relative viability (Sorafenib + Linsitinib; first compound 0.253 µM): 0.281; relative viability (Sorafenib + Linsitinib; first compound 2.53 µM): 0.373; relative viability (Sorafenib + Linsitinib; first compound 8 µM): 0.436; relative viability (Sorafenib + Alpelisib; first compound 0.08 µM): 0.714; relative viability (Sorafenib + Alpelisib; first compound 0.253 µM): 0.547; relative viability (Sorafenib + Alpelisib; first compound 2.53 µM): 0.431; relative viability (Sorafenib + Alpelisib; first compound 8 µM): 0.442; relative viability (Sorafenib + Navitoclax; first compound 0.08 µM): 0.579; relative viability (Sorafenib + Navitoclax; first compound 0.253 µM): 0.385; relative viability (Sorafenib + Navitoclax; first compound 2.53 µM): 0.488; relative viability (Sorafenib + Navitoclax; first compound 8 µM): 0.438; relative viability (Sorafenib + Lapatinib; first compound 0.08 µM): 0.491; relative viability (Sorafenib + Lapatinib; first compound 0.253 µM): 0.358; relative viability (Sorafenib + Lapatinib; first compound 2.53 µM): 0.456; relative viability (Sorafenib + Lapatinib; first compound 8 µM): 0.446; relative viability (Sorafenib + Olaparib; first compound 0.08 µM): 0.65; relative viability (Sorafenib + Olaparib; first compound 0.253 µM): 0.601; relative viability (Sorafenib + Olaparib; first compound 2.53 µM): 0.51; relative viability (Sorafenib + Olaparib; first compound 8 µM): 0.43; relative viability (Sorafenib + Foretinib; first compound 0.253 µM): 0.624; relative viability (Sorafenib + Foretinib; first compound 2.53 µM): 0.61; relative viability (Sorafenib + Foretinib; first compound 8 µM): 0.757; relative viability (Sorafenib + Bortezomib; first compound 0.08 µM): 0.704; relative viability (Sorafenib + Bortezomib; first compound 0.253 µM): 0.363; relative viability (Sorafenib + Bortezomib; first compound 2.53 µM): 0.458; relative viability (Sorafenib + Bortezomib; first compound 8 µM): 0.408; relative viability (Sorafenib + Crizotinib; first compound 0.08 µM): 0.573; relative viability (Sorafenib + Crizotinib; first compound 0.253 µM): 0.623; relative viability (Sorafenib + Crizotinib; first compound 2.53 µM): 0.494; relative viability (Sorafenib + Crizotinib; first compound 8 µM): 0.4; relative viability (Sorafenib + Pictilisib; first compound 0.08 µM): 0.451; relative viability (Sorafenib + Pictilisib; first compound 0.253 µM): 0.37; relative viability (Sorafenib + Pictilisib; first compound 2.53 µM): 0.311; relative viability (Sorafenib + Pictilisib; first compound 8 µM): 0.212; relative viability (Sorafenib; 0.253 µM): 0.646; relative viability (Sorafenib; 2.53 µM): 0.563; relative viability (Sorafenib; 8 µM): 0.514
